Results reported in publication PMC10082216 (Nature Communications, 2023).
Values joined by “and” are separate entries in the source; they are usually repeats but may differ in a detail not shown here. Equal values may be shown once. “Also recorded” adds a separate entry of the source.

Tested on: stage V gametocytes of P. falciparum (3D7 pULG8-GFP strain)
Assay: Post-screening validation with 96-well plate microsphiltration (Paris)
Assay type: cell-based, Plasmodium falciparum
Details: for retention 24 h after drug washout: 24 h exposure, remeasured additional 24 h after washout; for confirmation of stiffening activity upon post-screening: DRA, 3D7, Paris laboratory; for Normalized retention rate: gametocytes exposed 24 h
Protocol: Plasmodium falciparum NF54 strain parasites (used for screening campaign) were cultured at 4% hematocrit in RBCs from informed blood donors (blood group A) as previously described. Parasites were taken from the -80 °C freezer, then rapidly melt for 1 minute in a 37 °C water bath. A saline solution was gently added to avoid the lysis. Firstly, NaCl dissolved at 12% in distilled water (1/5 of the volume measured in the cryovial) and then NaCl dissolved at 1.6% (9 times the cryovial’s volume). After that, fresh RBCs were added to allow parasites re-growth. Infected RBCs were kept in RPMI medium (Sigma-Aldrich, cat. no. R4130), supplemented with 10% of decomplemented human serum, hypoxanthine 50 mg/l (Sigma-Aldrich, cat. no. H9636). Biobank of Castilla y Leon and Centro de Transfusiones de Madrid as providers of human red blood cell concentrates. The production of gametocytes was induced from a 0.5% ring-stage parasitemia (day 0). Medium was changed daily to induce gametocytes differentiation, as previously described. At day 17, gametocytes were concentrated using a density gradient medium (NycoPrep 1.077, Progen cat. no. 1114550)[27]. Parasitemia was adjusted by FACS (SYBR-Green and MitoTracker double staining, 3–5% targeted). Hematocrit was adjusted to 0.5% by adding fresh RBCs and controlled by manual counting in a Neubauer chamber (Celeromics, cat. no. 717810). Finally, the gametocyte suspension was poured (45 μL/well) into the compound-containing 384-well microplate, then incubated 24 hours both for the screening campaign and the dose-response analysis. Both asexual and sexual stages were cultivated in RPMI 1640 supplemented with 25 mM HEPES, 50 mg/L hypoxanthine, 50 μg/mL gentami-cin, 10% pooled heat-inactivated human serum (A^+). Each batch of serum was obtained by pooling 10 serum bags from different donors. Serum was kept at −20 °C and thawed in a warmed water bath before use. A new serum batch was prepared when the previous was completed. For dose-response analysis and microfluidics, both the 3D7-pULG8-GFP[67] and the NF54 strain (BEI Resources, cat. no. MRA-1000) were tested. The 3D7 strain was cultivated as described above with the addition of 0.2% NaHCO3 and 2.5 nM of WR99210 for both asexual and sexual stages.
Both fixed-dose and dose-response analyses were performed according to a second protocol (Paris laboratory) to validate the selected hits from primary screening. Briefly, the gametocyte suspension was loaded into a 96-well empty plate (200 µL/well). For each dose-response, first, well volume was doubled and compound was added to obtain 10 µM final concentration. For the dose-response analysis, the gametocyte suspension was then manually serially diluted 1/2 for 12 points, obtaining 5 nM as the lower concentration. The same operation was done with DMSO to have a negative control. After 24 hours of incubation at 37 °C, gametocyte suspensions were loaded into a 96-well filtration plate[28] and microsphiltration was manually performed at 37 °C. Up and downstream samples were incubated for 30 min with Hoechst 33342 nuclear staining (1/1000 diluted in PBS, Thermo Fischer cat. no. H3570), washed, resuspended in 200 µL of PBS and then loaded into an empty 96-well plate before FACSCanto (BD Biosciences, Franklin Lakes, New Jersey, USA) quantification. Data from cytofluorimetry were analyzed with FlowJo V12. As per previously described experiences with this technique, to avoid the risk of microbead layers saturation, a microsphiltration experiment was repeated when the upstream gametocytemia exceeded 10%[25],[69].

| Compound | retention 24 h after drug washout | confirmation of stiffening activity upon post-screening | IC50 (Plasmodium falciparum, 3D7, 96-well, five independent experiments, read-out: stiffening IC50, median (±SD)) | Normalized retention rate | persistence of stiffening activity after drug washout (mature gametocytes) | confirmation of stiffening activity upon post-screening (listed as L-THP) | Retention rates (single wells, Figure 4b) (gametocytes exposed to drugs 24 h) |
| --- | --- | --- | --- | --- | --- | --- | --- |
| CNC(=O)N1C[C@@H](C)N(c2ccc(C(=O)Nc3ccc(-c4ccc(-c5c[nH]c([C@@H]6CCCN6C(=O)[C@@H](NC(=O)OC)C(C)C)n5)cc4)c(OC(F)(F)F)c3)cn2)C[C@@H]1C [TD-6450] | 43% | confirmed | 280 ± 580 nM | 27% | ≥ 24 h | – | – |
| COc1cc2c(cc1OC)[C@@H]1Cc3ccc(OC)c(OC)c3CN1CC2 [(S)-(-)-Tetrahydropalmatine] | – | – | – | – | – | not fully confirmed; also recorded: did not confirm | – |
| C[C@H]1Cc2c([nH]c3cc(Cl)c(F)cc23)[C@@]2(N1)C(=O)Nc1ccc(Cl)cc12 [NITD609, cipargamin] | 23% | confirmed | – | 66% | – | – | 36.4701 and 62.0956 and 72.239 |
